Measured values as given in publication PMC9822553 (iScience, 2023).
pIC50: −log10 of the molar value.

Experiments:
Format in all cases: cell-based
SARS-CoV-2 strain FFM3 = assay: microbe, parasite or virus in culture; details: Severe acute respiratory syndrome coronavirus 2, read-out: IC50 concentration
SARS-CoV-2 variant G614 [1] = test system: SARS-CoV-2 variant G614
SARS-CoV-2 variant G614 [2] = test system: SARS-CoV-2 variant G614; remark: listed apart in the source

SMILES	pIC50 (SARS-CoV-2 strain FFM3)	effect on caspase 3/7 activity (SARS-CoV-2 variant G614 [1])	effect on SARS-CoV-2 replication and CPE formation (SARS-CoV-2 variant G614 [2])
CCC(CC)COC(=O)[C@H](C)N[P@](=O)(OC[C@H]1O[C@@](C#N)(c2ccc3c(N)ncnn23)[C@H](O)[C@@H]1O)Oc1ccccc1 [remdesivir]	6.30		
C[C@H](NC(=O)C(=O)Nc1ccccc1C(C)(C)C)C(=O)N[C@@H](CC(=O)O)C(=O)COc1c(F)c(F)cc(F)c1F [emricasan]		suppressing caspase 3/7 activity	did not interfere with SARS-CoV-2 replication and CPE formation
